“And” between values parts separate entries of the source, which are not always exact repeats. Equal values may be shown once.
Legend:
[1] = target: T1, E35D↑G↑S mutant HIV-1 subtype C protease (Human immunodeficiency virus type 1 group M subtype C, UniProt Q994Q3, D118E/E93D/I94G/INS93GS); assay: biochemical; conditions: for IC50: E35D↑G↑S IC50, mutant E35D↑G↑S, n = 3; for ΔG (Gibbs free binding energy): calculated from Ki, ΔG=RTlnKi; for Ki ratio / reduced activity in comparison to the wildtype: mutant versus wild type; for ΔΔG: mutant-wild type; for log vitality: v = (Ki × Kcat/Km)MUT/(Ki × Kcat/Km)WT, wild type as reference
Method: (§1) Enzymatic activity of the HIV-1 C-SA and mutant (E35D↑G↑S) protease was measured by following the hydrolysis of the HIV-PR chromogenic substrate, Lys-Ala-Arg-Val-Nle-nPhe-Glu-Ala-Nle-NH2 as reported before[13]^,[15]. The substrate resembles the conserved protease cleavage site, KARVL/AEAM[8] between the capsid protein and the […] in the Gag-polyprotein precursor. Hydrolysis of the HIV chromogenic substrate was characterised by the decrease in absorbance at 300 nm. Catalytic properties such as the Km, kcat, and kcat/Km of the proteases were determined. All catalytic activity assays were performed using a Jasco V-630 spectrophotometer (Jasco International co., LTD, Japan).
(§2) This was done by monitoring the rate of chromogenic substrate hydrolysis using 2 µM protease in 50.0 mM sodium acetate, 0.1 M NaCl, pH 5.0, and (0–250 µM) substrate in increasing amounts of inhibitor (0–10 nM).
This is done by introducing the term “vitality” which is a measure of resistance. Vitality, v, is defined as v = (Ki × Kcat/Km)MUT/(Ki × Kcat/Km)WT, and predicts the therapeutic effect of a given protease inhibitor.
(§3) The Ki values were estimated using a competitive inhibition equation (Equation 1) according to Williams et al..

[2] = target: T1, E35D↑G↑S mutant HIV-1 subtype C protease; conditions: mutant-wild type
Method: Quenching experiments were performed according to the method reported by Maseko et al.[15]. Spectrofluorimetry was used to determine structural changes induced in HIV protease by the interaction of the inhibitors with the purified enzymes using Jasco V-630 spectrofluorimeter (Jasco International co., LTD, Japan). The excitation wavelength was fixed at 295 nm, the wavelength at which tryptophan absorbs and the emission wavelength measured was at […]. The change in fluorescence of a solution was monitored over 10 min, as increasing concentrations of inhibitors were added to a reaction mixture of HIV protease in 50 mM sodium acetate, 1 M NaCl, pH 5 in a final volume of […]. All fluorescence quenching experiments were performed at 4 different temperatures (293 K, 298 K, 303 K, 310 K). The following equations are applicable. (1) F0/F=1+KsvQ (2) lnKsv=−(ΔH/RT)+(ΔS/R) where F0 and F are the florescence in the absence and presence of quencher, Ksv is the Stern Volmer constant, Q is the quencher (drug), ΔH is the enthalpy, ΔS is entropy, R is the gas constant and T is the experimental temperature. The equation is developed from Van’t Hoff relationship. (3) ΔG=RTlnKi
Thermodynamic parameters were calculated from the Stern Volmer and Van’t Hoff plots (Figures S3 and S4). From these plots, ΔH and ΔS values for each drug were calculated. ΔG values were calculated from the Ki values from Equation (3).

[3] = target: wild type C-SA HIV protease (Human immunodeficiency virus type 1 group M subtype C, UniProt Q994Q3); assay: Inhibition of chromogenic substrate hydrolysis by wild type C-SA HIV protease; assay type: biochemical, HIV-1 subtype C; conditions: for IC50: wild type C-SA protease, n = 3, read-out: WT IC50; for Ki / ΔG (Gibbs free binding energy): wild type; for Ki: 37 °C, pH 5.0; for ΔG (Gibbs free binding energy): calculated from Ki, ΔG=RTlnKi
Method: as §1, §2, §3

| Structure (SMILES) | IC50 [1] [nM] | ΔG (Gibbs free binding energy) ([1]; mutant E35D↑G↑S) [kcal/mol] | log Ki ([1]; mutant E35D↑G↑S, logarithm of Ki in nM, 37 °C, pH 5.0) | Ki ratio [1] | reduced activity in comparison to the wildtype [1] [folds] | ΔΔG [1] | log vitality [1] | ΔΔH [2] | −TΔΔS [2] | IC50 [3] [nM] | Ki [1] [nM] | Ki [3] [nM] | ΔG (Gibbs free binding energy) [3] [kcal/mol] |
| --- | --- | --- | --- | --- | --- | --- | --- | --- | --- | --- | --- | --- | --- |
| CC(C)CN(C[C@@H](O)[C@H](Cc1ccccc1)NC(=O)O[C@H]1CCOC1)S(=O)(=O)c1ccc(N)cc1 [APV, Amprenavir] | 4.1 ± 0.05 | -13.12 | negative | 4 ± 0.1 | 4 | 0.80 kcal/mol and 0.80 ± 0.1 kcal/mol | 0.36 | 12.9 ± 0.8 | 12.1 ± 0.2 | 0.81 ± 0.04 |  |  |  |
| COC(=O)N[C@H](C(=O)N[C@@H](Cc1ccccc1)[C@@H](O)CN(Cc1ccc(-c2ccccn2)cc1)NC(=O)[C@@H](NC(=O)OC)C(C)(C)C)C(C)(C)C [ATV, Atazanavir] | 685 ± 3 |  |  | 1828 ± 2.0 |  | 4.6 ± 0.2 kcal/mol | highest vitality value | 3.1 ± 0.1 | −1.5 ± 0.1 | 1.07 ± 0.08 | 145 | 0.0776 | -14.35 |
| CC(C)CN(C[C@@H](O)[C@H](Cc1ccccc1)NC(=O)O[C@H]1CO[C@H]2OCC[C@H]21)S(=O)(=O)c1ccc(N)cc1 [DRV, Darunavir] | 154 ± 2 |  |  | 560 ± 3.0 |  | 3.9 ± 0.5 kcal/mol | around two | 2.1 ± 0.0 | −1.8 ± 0.1 | 1.07 ± 0.04 |  |  |  |
| CC(C)(C)NC(=O)[C@@H]1CN(Cc2cccnc2)CCN1C[C@@H](O)C[C@@H](Cc1ccccc1)C(=O)N[C@H]1c2ccccc2C[C@H]1O [IDV, Indinavir] | 33.6 ± 1 |  |  | 20 ± 0.5 |  | 1.9 ± 0.6 kcal/mol | ~1.00 | −0.1 ± 0.0 | 1.8 ± 0.3 | 3.44 ± 0.06 |  |  |  |
| Cc1cccc(C)c1OCC(=O)N[C@@H](Cc1ccccc1)[C@@H](O)C[C@H](Cc1ccccc1)NC(=O)[C@H](C(C)C)N1CCCNC1=O [LPV, Lopinavir] | 51.7 ± 0.8 |  |  | 12 ± 0.1 |  | 1.6 ± 0.3 kcal/mol | ~1.00 | −13.1 ± 0.9 | 14.7 ± 0.1 | 2.99 ± 0.01 |  |  |  |
| Cc1c(O)cccc1C(=O)N[C@@H](CSc1ccccc1)[C@H](O)CN1C[C@H]2CCCC[C@H]2C[C@H]1C(=O)NC(C)(C)C [NFV, Nelfinavir] | 1401 ± 3 |  |  | 532 ± 2 |  | 4.1 ± 0.2 kcal/mol | around two | 2.3 ± 0.0 | −1.8 ± 0.0 | 1.99 ± 0.05 | 174 |  |  |
| CC(C)c1nc(CN(C)C(=O)N[C@H](C(=O)N[C@@H](Cc2ccccc2)C[C@H](O)[C@H](Cc2ccccc2)NC(=O)OCc2cncs2)C(C)C)cs1 [RTV, Ritonavir] |  | -12.96 |  |  | 5 | 0.93 kcal/mol and 0.9 ± 0.1 kcal/mol | 0.30 | 6.8 ± 0.1 | 5.8 ± 0.2 |  |  |  |  |
| CC(C)(C)NC(=O)[C@@H]1C[C@@H]2CCCC[C@@H]2CN1C[C@@H](O)[C@H](Cc1ccccc1)NC(=O)[C@H](CC(N)=O)NC(=O)c1ccc2ccccc2n1 [SQV, Saquinavir] | 114 ± 1.2 |  |  | 215 ± 2.0 |  | 3.3 ± 0.5 kcal/mol | around two | 2.9 ± 0.1 | 0.4 ± 0.0 | 0.77 ± 0.05 |  |  |  |
| CCC[C@@]1(CCc2ccccc2)CC(O)=C([C@H](CC)c2cccc(NS(=O)(=O)c3ccc(C(F)(F)F)cn3)c2)C(=O)O1 [TPV, Tipranavir] | 203 ± 2.6 |  |  | 292 ± 4.0 |  | 3.7 ± 0.1 kcal/mol | around two | 3.2 ± 0.2 | −7.1 ± 0.1 | 1.55 ± 0.02 |  | 0.513 | -13.19 |
